Laboratory results taken from patent US20250268821A1 (AVALYN PHARMA INC., priority 2022, published 2025).
Where two headings read alike, the source gives them in different places.

How the values were obtained:
[1] = Particle size distribution by laser diffraction (Malvern Mastersizer 3000); type: physicochemical; settings: for PSD D10 / PSD D50 / PSD D90: micronised API after jet milling
Description: Particle size distribution was measured using a Malvern Mastersizer 3000. The sample for analysis (10 mg) was suspended in 0.1% lecithin in isooctane (10 mL) and sonicated to disperse the particles prior to measurement. A single sample was prepared for each measurement.
Two batches were prepared and particle size distribution measured using a Mastersizer 3000 (Table 8).

[2] = Moisture content by Karl Fischer coulometry; type: physicochemical
Description: Three assay determinations were made for each assay and the mean value reported. Moisture content was measured by Karl Fischer coulometry using a Metrohm 851 Tritrando coulometer and sample oven. 50 mg of each sample was heated to 80° C. Lactose monohydrate was used as a bracketing standard. Single measurements were made for each sample. The emitted dose was measured using Dosage Unit Sampling Apparatus (DUSA) at 100 L/min. The samples were recovered using 50 mL of diluent. Ten determinations were performed and mean value reported

[3] = SEM, XRPD and overall stability assessment of micronised drug substance; type: physicochemical; settings: 1 month 25°C/60% RH and 40°C/75% RH, then four months laboratory conditions
Description: Scanning electron microscopy and x-ray powder diffraction were performed at the University of Bath.
SEM images were recorded (FIGS. 1 and 2) and the polymorphic stability was assessed by XRPD (FIGS. 3 and 4) and DSC (FIG. 6). The characterization was then repeated after a further four months at laboratory conditions.

[4] = Pirfenidone-nintedanib interaction: physical stability of nintedanib solution in 67 mM sodium chloride; type: physicochemical; settings: 0.25 mg/mL nintedanib, about 67 mM sodium chloride
[5] = in vivo; cited from earlier work
[6] = Clinical study in healthy volunteers: inhaled nebulized vs oral nintedanib (ELF and plasma pharmacokinetics, safety); type: in vivo; settings: human
Excerpt: To characterize how dry powder nintedanib may perform in humans, a clinical study was first conducted comparing inhaled nebulized and oral nintedanib in healthy volunteers.

[7] = target: T1, Flt-3 (Homo sapiens, UniProt P36888); settings: cited from earlier work
T1 sequence (P36888 27-993): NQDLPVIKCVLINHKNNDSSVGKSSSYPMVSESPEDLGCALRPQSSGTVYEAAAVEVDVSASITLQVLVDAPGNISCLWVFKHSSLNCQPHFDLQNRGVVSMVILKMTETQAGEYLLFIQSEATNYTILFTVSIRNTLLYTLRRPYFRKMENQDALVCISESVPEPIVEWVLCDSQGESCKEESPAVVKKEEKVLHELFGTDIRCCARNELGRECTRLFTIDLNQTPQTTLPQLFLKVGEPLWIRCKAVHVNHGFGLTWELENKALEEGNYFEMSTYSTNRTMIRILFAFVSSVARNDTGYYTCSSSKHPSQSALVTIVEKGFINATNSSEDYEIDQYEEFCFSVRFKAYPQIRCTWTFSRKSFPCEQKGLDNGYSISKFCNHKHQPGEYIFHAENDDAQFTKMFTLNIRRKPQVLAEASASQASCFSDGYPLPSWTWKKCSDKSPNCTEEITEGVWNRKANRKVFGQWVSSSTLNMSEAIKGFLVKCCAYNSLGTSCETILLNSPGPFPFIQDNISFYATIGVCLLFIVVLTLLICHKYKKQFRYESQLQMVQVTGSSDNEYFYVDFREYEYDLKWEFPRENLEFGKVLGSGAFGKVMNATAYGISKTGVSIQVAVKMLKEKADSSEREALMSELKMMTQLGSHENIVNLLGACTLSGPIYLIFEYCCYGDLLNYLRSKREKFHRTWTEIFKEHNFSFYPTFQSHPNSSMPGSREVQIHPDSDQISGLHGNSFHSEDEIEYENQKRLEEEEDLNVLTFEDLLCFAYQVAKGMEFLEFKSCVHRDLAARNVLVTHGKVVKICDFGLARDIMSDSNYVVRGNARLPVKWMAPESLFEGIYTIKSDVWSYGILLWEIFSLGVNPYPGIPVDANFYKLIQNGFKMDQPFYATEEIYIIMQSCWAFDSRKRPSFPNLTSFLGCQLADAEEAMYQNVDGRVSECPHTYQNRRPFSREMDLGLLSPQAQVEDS

[8] = target: Src (Homo sapiens, UniProt P12931); settings: cited from earlier work
Src, sequence (P12931 whole entry, species assumed): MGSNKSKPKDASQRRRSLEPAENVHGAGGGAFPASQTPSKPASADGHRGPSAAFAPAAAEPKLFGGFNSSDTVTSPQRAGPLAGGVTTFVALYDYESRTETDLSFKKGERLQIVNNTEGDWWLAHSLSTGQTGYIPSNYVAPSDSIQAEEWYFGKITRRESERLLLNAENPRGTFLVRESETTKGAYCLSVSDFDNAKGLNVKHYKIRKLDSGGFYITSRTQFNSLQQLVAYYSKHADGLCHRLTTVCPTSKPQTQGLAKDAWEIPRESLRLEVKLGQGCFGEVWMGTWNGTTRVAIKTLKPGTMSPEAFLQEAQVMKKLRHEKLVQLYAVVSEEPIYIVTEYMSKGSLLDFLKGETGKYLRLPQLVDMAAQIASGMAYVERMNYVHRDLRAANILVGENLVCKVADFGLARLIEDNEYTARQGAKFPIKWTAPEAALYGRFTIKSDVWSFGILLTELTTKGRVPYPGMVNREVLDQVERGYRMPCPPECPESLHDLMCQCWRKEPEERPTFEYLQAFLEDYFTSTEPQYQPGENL

[9] = Sheep pharmacokinetics (ELF and plasma): nebulized inhaled nintedanib, fixed combination with pirfenidone, oral nintedanib; type: in vivo; settings: for Cmax / AUC / half-life / Tmax: female, Merino cross-bred, sheep
Description: All animals had received standard vaccinations and were treated orally with anthelminthic (in line with standard management practices) prior to arrival at the animal facility to eliminate any worm parasites before experimentation. Experimental animals were rotated between indoor small group pen housing and metabolism cages under controlled ambient conditions (20-22° C.) and maintained on a 12 h light/dark throughout the experimental period. […] All formulations used in this study were stored at room temperature (RT) and protected from light prior to use; drugs were prepared on day of use. Sheep arrived into the facility as one group and were acclimatized over 2-3 weeks (group housing to indoor cage/pens) prior to experimentation. […] Group 1 sheep also received Treatment 1b, an addition/modification to the original study protocol. Treatments were administered over Weeks 3-9 of the study; each experimental Treatment was performed over a one week period in either Group 1 or Group 2 sheep (e.g., one group received Treatment while the other group was rested). Group 1 and Group 2 sheep were allocated separate sampling schedules for peripheral blood and bronchoalveolar lavage fluid (BALF) collections (Table 16). For nebulized aerosol drug administration to the lungs (inhalation dosing), a lubricated cuffed endotracheal (ET) tube (Portex, 7.0-8.0 mm internal diameter) was inserted via the nasal passage (guided by a fibre-optic endoscope) into the trachea. […] Respiration was set to 20 breaths/min, 50% inspiration and a tidal volume of 350 mL. Filters (Hudson RCl, NC, USA) were placed in the expiratory line to collect any expired drug dose. Following drug administration all lines, filters and nebulizer components were rinsed with 50 mL sterile saline to collect any remaining or expired dose. Washout sample aliquots (500 μl) were frozen on dry ice in 1.5 mL Eppendorf tubes, then stored at −80° C. prior to shipment for drug content analyses. Oral drug administration (Treatment 3) followed the procedure as detailed below (oral dosing optimization). A feeding tube (7 mm internal diameter) was inserted via the nasal passage (guided by a fibre-optic endoscope) into the upper region of the esophagus. […] Blood samples collected prior to and following drug administration (Table 16) were placed into K3EDTA-coated tubes. […] BALF samples were collected prior to and following drug administration ([…]). Sampling was carried out by intra-lung infusion of 25 ml of sterile saline via a catheter through the biopsy port of the bronchoscope, followed by immediate retrieval of the BALF sample into the collection syringe. BALF was collected from separate lung segments/lobes to avoid contamination between sampling time-points: the right apical lobe (RA) was used for all pre-dose sampling and post-dose samples were collected from right middle (RM); right caudal (RC); left caudal (LC); left middle (LM); and left apical (LA) lung lobes. BALF sampling details (volumes, exact time of collection) were recorded and samples immediately frozen on dry ice, then stored at −80° C. prior to shipment for drug content analyses.

[10] = target: Lyn (Homo sapiens, UniProt P07948); settings: cited from earlier work
Lyn, sequence (P07948 whole entry, species assumed): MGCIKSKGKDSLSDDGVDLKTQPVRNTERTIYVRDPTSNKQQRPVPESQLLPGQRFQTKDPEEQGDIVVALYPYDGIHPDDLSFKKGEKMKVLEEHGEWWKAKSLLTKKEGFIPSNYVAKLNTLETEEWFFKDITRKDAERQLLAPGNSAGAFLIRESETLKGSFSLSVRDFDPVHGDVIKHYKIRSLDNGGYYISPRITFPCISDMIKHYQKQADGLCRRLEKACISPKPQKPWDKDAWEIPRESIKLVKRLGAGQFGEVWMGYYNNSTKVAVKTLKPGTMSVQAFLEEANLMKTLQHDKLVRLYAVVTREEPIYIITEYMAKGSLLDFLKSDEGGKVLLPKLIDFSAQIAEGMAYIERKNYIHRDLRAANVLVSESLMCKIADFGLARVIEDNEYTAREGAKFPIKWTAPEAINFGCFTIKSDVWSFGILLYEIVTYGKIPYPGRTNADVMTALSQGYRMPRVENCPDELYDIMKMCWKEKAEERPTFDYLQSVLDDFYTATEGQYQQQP

[11] = previously known; various salt forms; cited from earlier work
[12] = +4 months at laboratory conditions
[13] = inhaled nebulized, 2 mg, IPD = immediate post dose

Br.COC(=O)c1ccc2c(c1)NC(=O)/C2=C(\Nc1ccc(N(C)C(=O)CN2CCN(C)CC2)cc1)c1ccccc1 [Batch 1]
PSD D10 [1]: 0.04 μm | PSD D50 [1]: 1.03 μm | PSD D90 [1]: 2.66 μm

Br.COC(=O)c1ccc2c(c1)NC(=O)/C2=C(\Nc1ccc(N(C)C(=O)CN2CCN(C)CC2)cc1)c1ccccc1 [Batch 2]
PSD D10 [1]: 0.60 μm | PSD D50 [1]: 1.51 μm | PSD D90 [1]: 2.87 μm

COC(=O)c1ccc2c(c1)NC(=O)/C2=C(\Nc1ccc(N(C)C(=O)CN2CCN(C)CC2)cc1)c1ccccc1 [Micronised Nintedanib HBr]
Water Content ([2]; 1 month 25/60): 5.3% | Water Content ([2]; 1 month 40/75): 5.2% | Water Content [2, 12]: 4.7% | Water Content ([2]; T0): 5.3% | D10 ([1]; 1 month 25/60): 0.6 mcm | D50 ([1]; 1 month 25/60): 1.6 mcm | D90 ([1]; 1 month 25/60): 3.0 mcm | D10 ([1]; 1 month 40/75): 0.6 mcm | D50 ([1]; 1 month 40/75): 1.5 mcm | D90 ([1]; 1 month 40/75): 2.6 mcm | D10 [1, 12]: 0.6 mcm | D50 [1, 12]: 1.5 mcm | D90 [1, 12]: 2.9 mcm | D10 ([1]; T0): 0.5 mcm | D50 ([1]; T0): 1.5 mcm | D90 ([1]; T0): 2.8 mcm | stability of micronised drug substance (PSD, moisture, SEM, XRPD, DSC) [3]: did not change during the study

COC(=O)c1ccc2c(c1)NC(=O)/C2=C(\Nc1ccc(N(C)C(=O)CN2CCN(C)CC2)cc1)c1ccccc1 [Nintedanib, methyl (3Z)-3-[[4-[methyl-[2-(4-methylpiperazin-1-yl)acetyl]amino]anilino]-phenylmethylidene]-2-oxo-1H-indole-6-carboxylate]
pirfenidone parts per 1 part nintedanib (weight by weight) that stabilizes nintedanib in solution [4]: greater than 30 parts | fraction of administered nintedanib excreted in the urine [5]: About 80% | AUC ([6]; epithelial lining fluid (ELF), inhaled or intranasal, inhaled nebulized liquid 2 mg, read-out: ELF AUC): 3400 ng·h/mL | Cmax ([6]; epithelial lining fluid (ELF), inhaled or intranasal, inhaled nebulized liquid 2 mg, read-out: ELF Cmax): 4660 ng/mL | AUC ([6]; epithelial lining fluid (ELF), oral tablet 150 mg, read-out: ELF AUC): 1200 ng·h/mL | Cmax ([6]; epithelial lining fluid (ELF), oral tablet 150 mg, read-out: ELF Cmax): 72.7 ng/mL | Tmax ([6]; plasma, inhaled or intranasal, inhaled nebulized liquid 2 mg): 0.2 h | AUC ([6]; plasma, inhaled or intranasal, inhaled nebulized liquid 2 mg, read-out: Plasma AUC): 4 ng·h/mL | Cmax ([6]; plasma, inhaled or intranasal, inhaled nebulized liquid 2 mg, read-out: Plasma Cmax): 2.8 ng/mL | Tmax ([6]; plasma, oral tablet 150 mg): 7.8 h | AUC ([6]; plasma, oral tablet 150 mg, read-out: Plasma AUC): 163 ng·h/mL | Cmax ([6]; plasma, oral tablet 150 mg, read-out: Plasma Cmax): 13.5 ng/mL | inhibition [7]: inhibited | inhibition [8]: inhibited | adverse responses to oral dosing ([9]; 75 mg oral with glucose chaser): without any adverse responses observed | Cmax ([9]; epithelial lining fluid (ELF), inhaled or intranasal, 0.06 mg/kg, inhaled nebulized liquid, 2 mg (0.06 mg/kg), read-out: ELF Cmax): 7380 ng/mL | Cmax ([9]; epithelial lining fluid (ELF), inhaled or intranasal, 0.06 mg/kg, inhaled nebulized monotherapy, 2 mg (0.06 mg/kg), Table 19, read-out: ELF Cmax): 7880 ng/mL | AUC ([9]; epithelial lining fluid (ELF), inhaled or intranasal, 2 mg, inhaled nebulized monotherapy, 2 mg, Table 19, read-out: ELF AUC): 7300 ng·h/mL | AUC ([9]; epithelial lining fluid (ELF), inhaled or intranasal, 2 mg, inhaled nebulized, 2 mg, read-out: ELF AUC): 5400 ng·h/mL | half-life ([9]; epithelial lining fluid (ELF), inhaled or intranasal, inhaled nebulized, 2 mg, read-out: ELF T1/2 (α) (converted)): 0.25 h | Cmax ([9]; epithelial lining fluid (ELF), po, 2.14 mg/kg, oral, 75 mg (2.14 mg/kg), 3 mg/mL in water, read-out: ELF Cmax): 74 ng/mL | AUC ([9]; epithelial lining fluid (ELF), po, 75 mg, oral, 75 mg, read-out: ELF AUC): 1200 ng·h/mL | half-life ([9]; epithelial lining fluid (ELF), oral, 75 mg, read-out: ELF T1/2 (converted)): 10 h | Tmax ([9]; epithelial lining fluid (ELF), oral, 75 mg, read-out: ELF Tmax): 10 h | AUC ([9]; plasma, inhaled or intranasal, 2 mg, inhaled nebulized monotherapy, 2 mg, Table 19, read-out: Plasma AUC): 4 ng·h/mL | Cmax ([9]; plasma, inhaled or intranasal, 2 mg, inhaled nebulized monotherapy, 2 mg, Table 19, read-out: Plasma Cmax): 3.9 ng/mL | AUC ([9]; plasma, inhaled or intranasal, 2 mg, inhaled nebulized, 2 mg, read-out: Plasma AUC): 7 ng·h/mL | Cmax ([9]; plasma, inhaled or intranasal, 2 mg, inhaled nebulized, 2 mg, read-out: Plasma Cmax): 5.9 ng/mL | half-life ([9]; plasma, inhaled or intranasal, inhaled nebulized, 2 mg, read-out: Plasma T1/2 (α) (converted)): 0.25 h | AUC ([9]; plasma, po, 75 mg, oral, 75 mg, read-out: Plasma AUC): 58 ng·h/mL | Cmax ([9]; plasma, po, 75 mg, oral, 75 mg, read-out: Plasma Cmax): 3.6 ng/mL | half-life ([9]; plasma, oral, 75 mg, read-out: Plasma T1/2 (converted)): 10 h | Tmax ([9]; plasma, oral, 75 mg, read-out: Plasma Tmax): 9 h | ELF Tmax [9, 13]: IPD^b | Plasma Tmax [9, 13]: IPD^b | inhibition [10]: inhibited | sodium chloride concentration at which nintedanib is physically unstable in solution [11]: ≥ 30 mM
